Laboratory results taken from US11731934B2, “HDAC inhibitor compounds and methods of treatment” (University of Florida Research Foundation, Inc., priority 2014, dated 2023).

What was measured:
[1] = test system: Ad-MLP-Luc reporter in HCT116 cell line; experiment: Ad-MLP-Luc luciferase reporter activation assay; format: cell-based; details: HCT116, compared to Ad-E2-Luc reporter
HCT116 cells [2] = experiment: H3K18ac after 6 h pulse treatment and drug washout; format: cell-based; details: 6 h exposure then washout
HCT116 cells [3] = experiment: Western blotting of acetylated histones; format: cell-based; details: for Inhibition of cellular HDACs (H4K5ac, H3K18ac): HCT116, 0.5 μM, 24 h (FIG. 1B); for Accumulation of acetylated histones: HCT116, 1 h, TSA 0.2 μM, others 2 μM (FIG. 1A)
HCT116 and A549 cells = experiment: Western blotting of acetylated non-histone proteins; format: cell-based; details: for α-tubulin acetylation: 1 h, TSA 0.2 μM, UF010 2 μM
HepG2 cells = experiment: Viability assay, with or without HDAC shRNA; format: cell-based; details: HepG2, 96 h (FIG. 4A)
[4] = 50 mg/kg dosed orally, ref (4); cited from earlier work
HDAC1 = HDAC1 (Homo sapiens (Human), UniProt Q13547); experiment: In vitro HDAC1 inhibition assay of HTS hits (HDAC/II-Glo reagents); format: biochemical
Chain of HDAC1 (Q13547 whole entry): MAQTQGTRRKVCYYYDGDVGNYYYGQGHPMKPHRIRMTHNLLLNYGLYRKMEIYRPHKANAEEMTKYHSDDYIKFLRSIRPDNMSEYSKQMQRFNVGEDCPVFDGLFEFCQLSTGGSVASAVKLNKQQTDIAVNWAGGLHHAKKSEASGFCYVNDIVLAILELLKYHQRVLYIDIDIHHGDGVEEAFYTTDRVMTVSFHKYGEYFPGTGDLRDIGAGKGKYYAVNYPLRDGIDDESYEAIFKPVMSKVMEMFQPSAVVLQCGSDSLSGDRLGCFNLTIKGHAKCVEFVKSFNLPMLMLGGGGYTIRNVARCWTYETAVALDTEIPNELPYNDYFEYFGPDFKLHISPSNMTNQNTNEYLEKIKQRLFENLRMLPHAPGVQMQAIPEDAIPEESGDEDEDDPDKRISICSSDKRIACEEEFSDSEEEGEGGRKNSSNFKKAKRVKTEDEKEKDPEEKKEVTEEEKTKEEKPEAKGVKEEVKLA

[5] = test system: NCI-60 panel of cancer cell lines; experiment: NCI-60 panel screen; format: cell-based
MDA-MB-231 cells [6] = experiment: Cell cycle analysis by FACS; format: cell-based; details: 24 h, dose-dependent
MDA-MB-231 cells [7] = experiment: Microarray gene expression profiling with Ingenuity Pathway Analysis; format: cell-based; details: 1 μM, 24 h
MDA-MB-231 cells [8] = experiment: Quantitative real-time PCR of CDKN1A (p21); format: cell-based
[9] = Cell-based assays, comparison with entinostat
Source text: Chem Biol. 2015: in press.].

MDA-MB-231 cells [10] = details: UF010 at 1 μM

SMILES: C/C=C1\NC(=O)[C@H]2CSSCC/C=C/[C@H](CC(=O)N[C@H](C(C)C)C(=O)N2)OC(=O)[C@H](C(C)C)NC1=O [Romidepsin, romidepsin]
- Ad-MLP-Luc reporter activity [1]: dramatically increased in a dose-dependent manner
- Persistence of induced histone acetylation (H3K18ac) after drug addition (HCT116 cells [2]): up to 24 h
- Time to induction of histone acetylation (H3K18ac) (HCT116 cells [2]): quickly induced acetylation

SMILES: CCCCNNC(=O)c1ccc(N(C)C)cc1 [RLS2-131, N′-butyl-4-(dimethylamino)benzohydrazide]
- Inhibition of cellular HDACs (H4K5ac, H3K18ac) (HCT116 cells [3]): consistently displayed potent inhibition of cellular HDACs

SMILES: CC(/C=C/C(=O)NO)=C\[C@@H](C)C(=O)c1ccc(N(C)C)cc1 [TSA, Trichostatin A, reference compound]
- Accumulation of acetylated histones (HCT116 cells [3]): strongly induced acetylation at some sites but weakly at other sites
- α-tubulin acetylation (HCT116 and A549 cells): dramatically increased α-tubulin acetylation

SMILES: CCCCNNC(=O)c1ccccc1 [RLS2-125, N′-butylbenzohydrazide]
- Growth inhibition for HepG2 (HepG2 cells): little to no growth inhibition

SMILES: Nc1ccccc1NC(=O)CCCCCC(=O)Nc1ccccc1 [Compound 4b]
- Tmax [4]: 15 min

SMILES: CCCCNNC(=O)c1ccc(Br)cc1 [UF010, 4-bromo-N′-butylbenzohydrazide]
- HDAC1 inhibition in vitro, potency (HDAC1): < 10 µM
- Inhibition of cellular HDACs (H4K5ac, H3K18ac) (HCT116 cells [3]): consistently displayed potent inhibition of cellular HDACs
- Accumulation of acetylated histones (HCT116 cells [3]): consistently induced the accumulation of acetylated histones at all sites examined
- Accumulation of acetylated p53 (HCT116 and A549 cells; 2 μM, after exposure to etoposide 10 μM): induced accumulation of acetylated p53
- p53 stabilization (HCT116 and A549 cells; 2 μM, with or without etoposide treatment): notably stabilized p53
- α-tubulin acetylation (HCT116 and A549 cells): little to no effect
- Mode of HDAC inhibition (on/off) (HCT116 cells [2]): fast-on but slow-off inhibitor
- Persistence of induced histone acetylation (H3K18ac) after drug addition (HCT116 cells [2]): up to 96 h
- Time to induction of histone acetylation (H3K18ac) (HCT116 cells [2]): ≤ 6 h
- Inhibition of proliferation, NCI-60 panel [5]: inhibited proliferation of all tested cell lines
- Cell cycle effect (MDA-MB-231 cells [6]): mainly blocked G1/S transition
- Predicated activation state, Biological Functions: Cell cycle, Cell cycle progression (MDA-MB-231 cells [7]): Suppressed
- Predicated activation state, Biological Functions: Cell death and survival, Apoptosis (MDA-MB-231 cells [7]): Activated
- Predicated activation state, Biological Functions: Cell death and survival, Cell survival (MDA-MB-231 cells [7]): Suppressed
- Predicated activation state, Biological Functions: Cell death and survival, Necrosis (MDA-MB-231 cells [7]): Activated
- Predicated activation state, Biological Functions: Cell growth and proliferation, Proliferation of cells (MDA-MB-231 cells [7]): Suppressed
- Predicated activation state, Biological Functions: DNA replication, recombination and repair, Repair of DNA (MDA-MB-231 cells [7]): Suppressed
- Predicated activation state, Biological Functions: Gene expression, Transcription of RNA (MDA-MB-231 cells [7]): Suppressed
- Predicated activation state, Upstream Regulators: Butyric acid (MDA-MB-231 cells [7]): Activated
- Predicated activation state, Upstream Regulators: Cisplatin (MDA-MB-231 cells [7]): Activated
- Predicated activation state, Upstream Regulators: ERK1/2 (MDA-MB-231 cells [7]): Activated
- Predicated activation state, Upstream Regulators: HDAC1 (MDA-MB-231 cells [7]): Suppressed
- Predicated activation state, Upstream Regulators: HDAC2 (MDA-MB-231 cells [7]): Suppressed
- Predicated activation state, Upstream Regulators: KRAS (MDA-MB-231 cells [7]): Suppressed
- Predicated activation state, Upstream Regulators: MYCN (MDA-MB-231 cells [7]): Suppressed
- Predicated activation state, Upstream Regulators: Myc (MDA-MB-231 cells [7]): Suppressed
- Predicated activation state, Upstream Regulators: Rb1 (MDA-MB-231 cells [7]): Activated
- Predicated activation state, Upstream Regulators: Romidepsin (MDA-MB-231 cells [7]): Activated
- Predicated activation state, Upstream Regulators: TP53 (MDA-MB-231 cells [7]): Activated
- Predicated activation state, Upstream Regulators: Tributyrin (butyrate) (MDA-MB-231 cells [7]): Activated
- Predicated activation state, Upstream Regulators: Trichostatin A (MDA-MB-231 cells [7]): Activated
- Predicated activation state, Upstream Regulators: fulvestrant (MDA-MB-231 cells [7]): Activated
- CDKN1A (p21) expression by qPCR (MDA-MB-231 cells [8]): activation of CDKNA encoding p21 was also confirmed
- Potency relative to entinostat in cell-based assays [9]: about 5 fold
- Cell migration to the denuded areas (MDA-MB-231 cells [10]): markedly slowed migration

SMILES: Nc1ccccc1NC(=O)c1ccc(CNC(=O)OCc2cccnc2)cc1 [MS-275, entinostat]
- Accumulation of acetylated histones (HCT116 cells [3]): only slightly induced acetylation at several sites but failed to induce acetylation at most sites
- Persistence of induced histone acetylation (H3K18ac) after drug addition (HCT116 cells [2]): at least 48 h
- Time to induction of histone acetylation (H3K18ac) (HCT116 cells [2]): 18 h

SMILES: O=C(CCCCCCC(=O)Nc1ccccc1)NO [SAHA, vorinostat, reference compound]
- HDAC1 inhibition in vitro, potency (HDAC1): < 10 µM
